Experimental data taken from article PMC11012124, “Synthesis of Novel Triazine-Based Chalcones and 8,9-dihydro-7H-pyrimido[4,5-b][1,4]diazepines as Potential Leads in the Search of Anticancer, Antibacterial and Antifungal Agents” (International Journal of Molecular Sciences, 2024).

Key:
Test in all cases: cells
[1] = test system: CCRF-CEM; details: Homo sapiens, 48 h; for CC50: read-out: LC50
[2] = test system: K-562; details: Homo sapiens, K562, 48 h; for GI50: K-562, 48 h; for CC50: read-out: LC50
[3] = test system: MOLT-4; details: Homo sapiens, MOLT-4, 48 h; for CC50: read-out: LC50
[4] = test system: A549/ATCC; details: Homo sapiens, A549, 48 h; for CC50: read-out: LC50
[5] = test system: EKVX; details: Homo sapiens, 48 h; for CC50: read-out: LC50
[6] = test system: HOP-62; details: Homo sapiens, HOP-62, 48 h; for CC50: read-out: LC50
[7] = test system: HOP-92; details: Homo sapiens, HOP-92, 48 h; for CC50: read-out: LC50
[8] = test system: NCI-H23; details: Homo sapiens, NCI-H23, 48 h; for CC50: read-out: LC50
[9] = test system: NCI-H460; details: Homo sapiens, NCI-H460, 48 h; for CC50: read-out: LC50
[10] = test system: COLO 205; details: Homo sapiens, COLO 205, 48 h; for CC50: read-out: LC50
[11] = test system: HCC-2998; details: Homo sapiens, HCC 2998, 48 h; for CC50: read-out: LC50
[12] = test system: HCT-116; details: Homo sapiens, HCT-116, 48 h; for CC50: read-out: LC50
[13] = test system: HCT-15; details: Homo sapiens, HCT-15, 48 h; for CC50: read-out: LC50
[14] = test system: HT29; details: Homo sapiens, HT-29, 48 h; for CC50: read-out: LC50
[15] = test system: KM12; details: Homo sapiens, KM12, 48 h; for CC50: read-out: LC50
[16] = test system: SW-620; details: Homo sapiens, SW-620, 48 h; for CC50: read-out: LC50
[17] = test system: SF-268; details: Homo sapiens, SF-268, 48 h; for CC50: read-out: LC50
[18] = test system: SF-295; details: Homo sapiens, SF-295, 48 h; for CC50: read-out: LC50
[19] = test system: U251; details: Homo sapiens, U-251, 48 h; for GI50: U251, 48 h; for CC50: read-out: LC50
[20] = test system: LOX IMVI; details: Homo sapiens, 48 h; for CC50: read-out: LC50, LOX IMVI, 48 h
[21] = test system: MALME-3M; details: Homo sapiens, 48 h; for CC50: read-out: LC50
[22] = test system: SK-MEL-2; details: Homo sapiens, SK-MEL-2, 48 h; for CC50: read-out: LC50
[23] = test system: SK-MEL-28; details: Homo sapiens, SK-MEL-28, 48 h; for CC50: read-out: LC50
[24] = test system: SK-MEL-5; details: Homo sapiens, SK-MEL-5, 48 h; for CC50: read-out: LC50
[25] = test system: IGROV1; details: Homo sapiens, IGROV-1, 48 h; for CC50: read-out: LC50
[26] = test system: OVCAR-3; details: Homo sapiens, OVCAR-3, 48 h; for CC50: read-out: LC50
[27] = test system: OVCAR-5; details: Homo sapiens, OVCAR-5, 48 h; for CC50: read-out: LC50
[28] = test system: SK-OV-3; details: Homo sapiens, SK-OV-3, 48 h; for CC50: read-out: LC50
[29] = test system: 786-0; details: Homo sapiens, 786-0, 48 h; for CC50: read-out: LC50
[30] = test system: A498; details: Homo sapiens, A498, 48 h; for CC50: read-out: LC50
[31] = test system: ACHN; details: Homo sapiens, 48 h; for CC50: read-out: LC50
[32] = test system: CAKI-1; details: Homo sapiens, CAKI-1, 48 h; for CC50: read-out: LC50
[33] = test system: RXF 393; details: Homo sapiens, RXF 393, 48 h; for CC50: read-out: LC50
[34] = test system: UO-31; details: Homo sapiens, UO-31, 48 h; for CC50: read-out: LC50
[35] = test system: PC-3; details: Homo sapiens, PC-3, 48 h; for CC50: read-out: LC50
[36] = test system: MDA-MB-231/ATCC; details: Homo sapiens, MDA-MB-231, 48 h; for CC50: read-out: LC50
[37] = test system: T-47D; details: Homo sapiens, T47D, 48 h; for CC50: read-out: LC50

CN(C)c1nc(NCCNS(=O)(=O)c2ccc(C(=O)/C=C/c3ccc(Cl)cc3)cc2)nc(N2CCOCC2)n1 [23e]
GI50 [1]: 6.86 µM
CC50 [1]: > 100 µM
GI50 [2]: 3.71 µM
CC50 [2]: > 100 µM
GI50 [3]: 3.38 µM
CC50 [3]: > 100 µM
GI50 [4]: 14.4 µM
CC50 [4]: 56.4 µM
GI50 [5]: 14.8 µM
CC50 [5]: 55.7 µM
GI50 [6]: 17.5 µM
CC50 [6]: 65.8 µM
GI50 [7]: 15.1 µM
CC50 [7]: 67.8 µM
GI50 [8]: 15.7 µM
CC50 [8]: 55.6 µM
GI50 [9]: 16.8 µM
CC50 [9]: 67.1 µM
GI50 [10]: 16.7 µM
CC50 [10]: 70.8 µM
GI50 [11]: 16.7 µM
CC50 [11]: 56.7 µM
GI50 [12]: 11.7 µM
CC50 [12]: 50.7 µM
GI50 [13]: 2.07 µM
CC50 [13]: 9.93 µM
GI50 [14]: 3.21 µM
CC50 [14]: 36.4 µM
GI50 [15]: 16.9 µM
CC50 [15]: > 100 µM
GI50 [16]: 8.46 µM
CC50 [16]: 50.2 µM
GI50 [17]: 17.7 µM
CC50 [17]: > 100 µM
GI50 [18]: 13.3 µM
CC50 [18]: 52.8 µM
GI50 [19]: 8.16 µM
CC50 [19]: 45.9 µM
GI50 [20]: 1.71 µM
CC50 [20]: 6.13 µM
GI50 [21]: 15.1 µM
CC50 [21]: 54.2 µM
GI50 [22]: 16.5 µM
CC50 [22]: 56 µM
GI50 [23]: 15.5 µM
CC50 [23]: 53.9 µM
GI50 [24]: 16.3 µM
CC50 [24]: 55.6 µM
GI50 [25]: 3.08 µM
CC50 [25]: 36.8 µM
GI50 [26]: 17.9 µM
CC50 [26]: 70.5 µM
GI50 [27]: 15 µM
CC50 [27]: 53.9 µM
GI50 [28]: 15.3 µM
CC50 [28]: 59.5 µM
GI50 [29]: 14.8 µM
CC50 [29]: 55.9 µM
GI50 [30]: 12.4 µM
CC50 [30]: 50.8 µM
GI50 [31]: 13.5 µM
CC50 [31]: 51.3 µM
GI50 [32]: 11.2 µM
CC50 [32]: 54.7 µM
GI50 [33]: 12.8 µM
CC50 [33]: 57.1 µM
GI50 [34]: 11.4 µM
CC50 [34]: 48.4 µM
GI50 [35]: 13 µM
CC50 [35]: 67 µM
GI50 [36]: 13.3 µM
CC50 [36]: 52.7 µM
GI50 [37]: 16.7 µM
CC50 [37]: > 100 µM

CN(C)c1nc(NCCNS(=O)(=O)c2ccc(C(=O)/C=C/c3ccc(F)cc3)cc2)nc(N2CCOCC2)n1 [23f]
GI50 [1]: 6.58 µM
CC50 [1]: > 100 µM
GI50 [2]: 3.7 µM
CC50 [2]: > 100 µM
GI50 [3]: 4.69 µM
CC50 [3]: > 100 µM
GI50 [4]: 13.7 µM
CC50 [4]: 56.8 µM
GI50 [5]: 14.4 µM
CC50 [5]: 53.8 µM
GI50 [6]: 16.1 µM
CC50 [6]: 61.8 µM
GI50 [7]: 12.7 µM
CC50 [7]: 63.5 µM
GI50 [8]: 14.6 µM
CC50 [8]: 54.3 µM
GI50 [9]: 15.7 µM
CC50 [9]: 69.4 µM
GI50 [10]: 14.6 µM
CC50 [10]: 62.4 µM
GI50 [11]: 16 µM
CC50 [11]: 56 µM
GI50 [12]: 2.29 µM
CC50 [12]: 16.8 µM
GI50 [13]: 2.15 µM
CC50 [13]: 13.7 µM
GI50 [14]: 2.84 µM
CC50 [14]: 32.3 µM
GI50 [15]: 13.4 µM
CC50 [15]: 70.3 µM
GI50 [16]: 3.38 µM
CC50 [16]: 40.8 µM
GI50 [17]: 15 µM
CC50 [17]: 94 µM
GI50 [18]: 11.3 µM
CC50 [18]: 50.1 µM
GI50 [19]: 4.74 µM
CC50 [19]: 41.5 µM
GI50 [20]: 1.63 µM
CC50 [20]: 6.19 µM
GI50 [21]: 14.6 µM
CC50 [21]: 54.4 µM
GI50 [22]: 13.7 µM
CC50 [22]: 52.7 µM
GI50 [23]: 14.9 µM
CC50 [23]: 53.4 µM
GI50 [24]: 15.7 µM
CC50 [24]: 54.4 µM
GI50 [25]: 2.27 µM
CC50 [25]: 25.4 µM
GI50 [26]: 14.6 µM
CC50 [26]: 55.7 µM
GI50 [27]: 13.6 µM
CC50 [27]: 52.6 µM
GI50 [28]: 13.8 µM
CC50 [28]: 55.5 µM
GI50 [29]: 14.5 µM
CC50 [29]: 57 µM
GI50 [30]: 11.9 µM
CC50 [30]: 49.9 µM
GI50 [31]: 13.1 µM
CC50 [31]: 51.4 µM
GI50 [32]: 9.5 µM
CC50 [32]: 48.6 µM
GI50 [33]: 8.82 µM
CC50 [33]: 46.5 µM
GI50 [34]: 11 µM
CC50 [34]: 47.9 µM
GI50 [35]: 11.2 µM
CC50 [35]: 58.5 µM
GI50 [36]: 12.3 µM
CC50 [36]: 51.8 µM
GI50 [37]: 11.9 µM
CC50 [37]: 94.2 µM

CN(C)c1nc(NCCNS(=O)(=O)c2ccc(C(=O)/C=C/c3ccc(C(F)(F)F)cc3)cc2)nc(N2CCOCC2)n1 [23g]
GI50 [1]: 3.2 µM
CC50 [1]: > 100 µM
GI50 [2]: 3.21 µM
CC50 [2]: > 100 µM
GI50 [3]: 3.48 µM
CC50 [3]: > 100 µM
GI50 [4]: 13.8 µM
CC50 [4]: 62.3 µM
GI50 [5]: 14.3 µM
CC50 [5]: 52.5 µM
GI50 [6]: 17 µM
CC50 [6]: 61.3 µM
GI50 [7]: 15.2 µM
CC50 [7]: 65.2 µM
GI50 [8]: 13 µM
CC50 [8]: 52.6 µM
GI50 [9]: 16.1 µM
CC50 [9]: 65.6 µM
GI50 [10]: 15 µM
CC50 [10]: 69.8 µM
GI50 [11]: 12.9 µM
CC50 [11]: 52.5 µM
GI50 [12]: 3.19 µM
CC50 [12]: 33.5 µM
GI50 [13]: 1.86 µM
CC50 [13]: 7.07 µM
GI50 [14]: 2.06 µM
CC50 [14]: 9.88 µM
GI50 [15]: 8.95 µM
CC50 [15]: 68.3 µM
GI50 [16]: 3.3 µM
CC50 [16]: 36.5 µM
GI50 [17]: 16.3 µM
CC50 [17]: 87.9 µM
GI50 [18]: 8.11 µM
CC50 [18]: 45.4 µM
GI50 [19]: 2.95 µM
CC50 [19]: 40.7 µM
GI50 [20]: 1.68 µM
CC50 [20]: 5.94 µM
GI50 [21]: 14.4 µM
CC50 [21]: 53 µM
GI50 [22]: 16.3 µM
CC50 [22]: 56.7 µM
GI50 [23]: 14.4 µM
CC50 [23]: 52.6 µM
GI50 [24]: 15.8 µM
CC50 [24]: 54.9 µM
GI50 [25]: 1.77 µM
CC50 [25]: 6.97 µM
GI50 [26]: 16.4 µM
CC50 [26]: 57.3 µM
GI50 [27]: 14.5 µM
CC50 [27]: 53 µM
GI50 [28]: 14.7 µM
CC50 [28]: 59 µM
GI50 [29]: 14.5 µM
CC50 [29]: 54.9 µM
GI50 [30]: 13.3 µM
CC50 [30]: 53 µM
GI50 [31]: 8.6 µM
CC50 [31]: 45.5 µM
GI50 [32]: 11.4 µM
CC50 [32]: 51.7 µM
GI50 [33]: 11.5 µM
CC50 [33]: 49 µM
GI50 [34]: 11.9 µM
CC50 [34]: 49.2 µM
GI50 [35]: 10.8 µM
CC50 [35]: 60 µM
GI50 [36]: 11.7 µM
CC50 [36]: 50.3 µM
GI50 [37]: 5.5 µM
CC50 [37]: > 100 µM
